Experimental data published in US20240000741A1, “ALL-TRANS RETINOIC ACID ENHANCES RADIOTHERAPY AND OVERCOMES IMMUNE SUPPRESSION FOR CANCER THERAPY” (The University of Chicago, priority 2022, published 2024).

Key:
[1] = test system: bone marrow-derived DCs (BMDCs); experiment: iNOS induction in bone marrow-derived dendritic cells in vitro; assay type: cell-based, mouse; conditions: cultured in the presence of RA (200 μM)
Experimental: Femurs and tibias from 8- to 10-week-old mice were harvested. BMDCs were derived as described (40). The cultured BMDC were collected on day 6 for further experiments. For Inf-MAC induction in vitro, bone marrow cells were cocultured with the presence of 200 μM RA. On day 6, indicated amount of IFN-γ was added directly to the culture. Cells were stained for iNOS and TNF-α after 24-36 hours and analyzed using flow cytometry.

[2] = test system: immune cells in non-irradiated tumors; experiment: Flow cytometric analysis of non-irradiated tumors in the two-tumor model; assay type: in vivo, mouse
Text: (§1) Single cell suspensions were obtained as previously described (40). Cells were blocked with anti-Fc receptor (2.4 G2, BioXCell, Lebanon, New Hampshire, United States of America) and stained for live/dead with Zombie UV, followed staining using antibodies against CD45, CD4, CD8, NK1.1, CD11b, CD11c, Ly6C, Ly6G, F4/80, CD44, CD62L.
More CD8^+ T and CD4^+ T cells were also observed in the non-irradiated tumors when primary tumors received IR+RA treatment.

B16 melanoma tumor model = experiment: B16 melanoma tumor growth after IR and RA; assay type: in vivo, mouse; conditions: IR and RA combination compared with single treatments
Experimental: 1×10^6 MC38, B16/F1, Renca or CT26 cells were subcutaneously implanted into flanks of mice. Tumors were irradiated using a Phillips IR250 orthovoltage X-ray generator (Phillips, Amsterdam, the Netherlands) operating at 250 kV 15 mA. Subcutaneous local tumors were irradiated by shielding bodies with a cylindrical lead cover with only flank tumors exposed for radiation. ATRA (400 μg/mice/day) was administered by oral gavage for 10 days. For the two-tumor model, 1×10^6 and 0.7×10^6 MC38 cells were subcutaneously implanted into the right and left flank of mice respectively. […] Tumors were measured along two diameters (length and width) and depth twice weekly and volumes were calculated as length×width×depth/2. For CD8 and CD4 T cell depletion experiments, 200 μg antibodies were injected i.p. on day 0, 2, 5 and 8 after radiation. Anti-CD11b antibody was injected i.p. every two days starting 1 day before radiation. Anti-PD-L1 antibody was administered i.p. on day 0, 3, and 7 after radiation at 200 μg/mouse. Anti-IFN-γ was administered i.p. at 500 μg/mouse every 7 days. Anti-NK1.1 antibody was administered via i.p. at 25 μg/mouse every 3 days for 3 doses. Anti-GM-CSF antibody was given by i.p. injection at 250 μg/mouse every 2 days. FTY720 was delivered via gavage at 20 μg per dose every day for 7 days. […]

immune cells in tumors = experiment: Flow cytometric analysis of immune cells in treated MC38 tumors and draining lymph nodes; assay type: in vivo, mouse
Text: as §1
The following antibodies were used for high-dimensional flow analysis: BV605-CX3CR, BV650-XCR1, PB-CD11 b, BV510-CD24, BV711-CD64, BV785-F4/80, AF532-CD45, PerCP-Cy5.5-1-A/I-E, PerCP-eFluor710-Flt3, PE-Cy7-CD11c, FITC-Ly6C, PE-iNOS, PE-Dazzle 594-CD103, APC-TNF, Alexa Fluor 700-CD206, and APC-Cy7-SIRPα. For IFN-γ and GrzB (515407) staining, cells were cultured with PMA/ionomycin and brefeldin A (423303, BioLegend, San Diego, California, United States of America) for 6 hours followed by intracellular staining using BD fix/perm intracellular staining kit (554714, BD Biosciences, Franklin Lakes, New Jersey, United States of America). For TNF-α staining, cells were stimulated by PMA/ionomycin and brefeldin A for 4 hours followed by intracellular staining. Foxp3 (17-5773-82, Thermo Fisher Scientific, Waltham, Massachusetts, United States of America) Ki67 (Clone 16-A8, BioLegend, San Diego, California, United States of America) and iNOS staining were performed following Foxp3 staining protocol (00-5523-00, Thermo Fisher Scientific, Waltham, Massachusetts, United States of America). Cells were analyzed on Fortessa flow cytometer (BD Biosciences, Franklin Lakes, New Jersey, United States of America) or on Aurora spectral cytometer (Cytek Biosciences, Fremont, California, United States of America. Data was analyzed with software sold under the tradename FLOWJO software (FlowJo LLC, Ashland, Oregon, United States of America).
Immune cells in tumors 4 days after the start of the treatment were examined. […] In CD11b+ subsets, Ly6C^+ cells, including CD11c^+Ly6C^+ cells, increased by 4-fold in tumors receiving the combination treatment. […] Next, the DC population was examined by analyzing high-dimensional flow cytometry data using traditional dendritic cell (DC) markers. Monocyte-derived dendritic cells (MoDCs) (Ly6C^+CD11 b^+CD11c^+ MHC-II^+CXCR3^+CD64^+SIRPα^+CD206^− cells), a low level of type two dendritic cells (DC2s) (Ly6C^−CD11b^+CD11c^+MHC-11^+CXCR3^+CD64^−SIRPα+CD206^−) and a very low level of type one dendritic cells (DC1s) (Ly6C^−CD11b^−CD11c^+MHC-11^+ CXCR1^+CD103^+CD64^−) were detected in IR and RA treated tumors.

[3] = 8 days after IR+RA combination treatment
[4] = IR and RA treatment, high-dimensional flow cytometry
[5] = IR+RA vs single treatment, day 8
[6] = IR+RA, 4 days after start of treatment
[7] = after IR+RA combination treatment

CC1=C(/C=C/C(C)=C/C=C/C(C)=C/C(=O)O)C(C)(C)CCC1 [RA, all-trans retinoic acid]
iNOS production in BMDCs [1]: increased significantly
PD-L1 expression on DCs in non-irradiated tumors ([2]; 3 days post IR+RA treatment): Increased
PD-L1 expression on tumor cells in non-irradiated tumors ([2]; 3 days post IR+RA treatment): Increased
CD11c+iNOS+ cells in non-irradiated tumor [2, 3]: increased
proportion of CD11b+ cells in non-irradiated tumors [2, 3]: significantly increased proportion
proportion of CD11b+CD11c+Ly6C+ cells in non-irradiated tumors [2, 3]: significantly increased proportion
CD4+ T cells in non-irradiated tumors ([2]; primary tumors received IR+RA): More
CD8+ T cells in non-irradiated tumors ([2]; primary tumors received IR+RA): More
Foxp3+CD4+ T cells in non-irradiated tumors ([2]; primary tumors received IR+RA): marked decrease
proportion of CD4+ IFN-γ+ cells in non-irradiated tumors ([2]; primary tumors received IR+RA): increased
proportion of CD8+ IFN-γ+ cells in non-irradiated tumors ([2]; primary tumors received IR+RA): increased
proportion of CD8+GzmB+ cells in non-irradiated tumors ([2]; primary tumors received IR+RA): increased
B16 tumor growth (B16 melanoma tumor model): significant benefit
expression of TNF-α in CD11b+ cells (immune cells in tumors; IR and RA combination treatment): Elevated expression
DC1 population (immune cells in tumors; [4]): not changed
DC2 population (immune cells in tumors; [4]): not changed
level of monocyte-derived dendritic cells (MoDCs) (immune cells in tumors; [4]): significantly induced
increase of CD8+ T cells infiltration in tumors (immune cells in tumors; IR+RA compared to IR treated tumors, eight days after treatment commencement, p<0.05): about 3 fold
ratio of CD8+ IFN-γ+ cells to Treg (immune cells in tumors; IR+RA compared to any single treatment, day 8): increased significantly
percentage of CD8+ IFN-γ+ cells in tumors and draining lymph nodes (immune cells in tumors; [5]): increased
percentage of CD8+GzmB+ cells in tumors and draining lymph nodes (immune cells in tumors; [5]): increased
CD11b+iNOS+ cells in tumors (immune cells in tumors; [6]): 11.1%
increase of Ly6C+ cells, including CD11c+Ly6C+ cells, in CD11b+ subsets (immune cells in tumors; [6]): 4 fold
percentage of CD4+ T cells in tumors (immune cells in tumors; IR+RA, day 4 post treatment): no significant change
percentage of CD8+ T cells in tumors (immune cells in tumors; IR+RA, day 4 post treatment): only a marginal change
percentage of Foxp3+ (Treg) cells in CD4+ T cells (immune cells in tumors; IR+RA, day 8): decreased
CD11b+CD11c+iNOS+TNF-α+ cells in tumors (immune cells in tumors; IR+RA, day 8, compared to any other treatment group): more
number of iNOS-producing Inf-MACs in tumors (immune cells in tumors; IR+RA, tumors in CCR2 KO hosts vs WT mice): significantly lower
CD11b+iNOS+ cells in tumors (immune cells in tumors; RA alone, 4 days after start of treatment): 1.8%
Inf-MAC induction by IR plus RA (immune cells in tumors; Rag1−/− hosts given IFN-γ−/− T cells compared to WT T cells): significantly abrogated
Ki67+ proliferation in DLN, CD8+ and CD4+ (immune cells in tumors; [7]): increased
percentage of naïve T cells (CD62L+CD44−) in DLN, CD8+ and CD4+ (immune cells in tumors; [7]): decreased
